pIC50: −log10 of the molar value. Values belong to the compound of their own block, whether it stands above or below them.
Key:
[1] = system: retinoic acid oxidation (cytochrome P450 systems); experiment: Assay for NADPH Dependent Retinoic Acid Oxidation, liver microsomes; assay type: biochemical, rat; details: for % Inhibition Retinoic Acid (10 μM): 10 μM compound; for % Inhibition Retinoic Acid (100 μM): 100 μM compound
[2] = Retinol stability in the presence of boosters (OD 360 nm); assay type: physicochemical; details: booster approximately 0.1%, 60 hours at room temperature in the dark, approx. 50% aqueous ethanol
Protocol: Retinol (50% in tween 80) was dissolved in approximately 50% aqueous ethanol to provide a solution giving an OD at 360 nm of approximately 0.6 when measured in a 200 μl volume in a 96 well plate using a standard 96 well spectrophotometer.
Booster molecules were added at approximately 0.1% concentration and the OD 360 measured as above immediately and after 60 hours at room temperature in the dark. A correction was applied to the OD after 60 hours (divide by 0.85) to account for increased concentration of the retinol due to evaporation of solvent from the plate.

[3] = system: ARAT; experiment: Assay for ARAT activity, RPE microsomes; assay type: biochemical, bovine; details: 100 μm compound
[4] = molecular target: TGase I; experiment: Transglutaminase (TGase I ELISA) assay in cultured keratinocytes; assay type: cell-based; details: booster in combination with a constant retinol concentration of 10^−7M; read-out: Overall TG (IC 50)
[5] = molecular target: T1, LRAT (Bos taurus, UniProt Q9BGL2); experiment: Assay for LRAT activity, RPE microsomes; assay type: biochemical, bovine; details: 100 μm compound
T1 construct: followed by approximately 15 μg of RPE microsomal protein; tissue W. L. Lawson Co., Lincoln, Nebr; host or cells: bovine retinal pigment epithelium microsomes
T1 sequence (Q9BGL2 1-230): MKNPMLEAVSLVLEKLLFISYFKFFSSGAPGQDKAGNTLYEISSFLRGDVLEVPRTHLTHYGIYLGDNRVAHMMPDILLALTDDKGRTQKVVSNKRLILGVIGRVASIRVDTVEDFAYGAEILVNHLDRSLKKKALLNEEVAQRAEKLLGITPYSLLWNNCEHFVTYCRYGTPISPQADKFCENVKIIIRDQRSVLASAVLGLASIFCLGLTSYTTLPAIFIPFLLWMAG

[6] = system: CRABP-II; experiment: CRABP-II expression in adult fibroblasts (dot blot); assay type: cell-based, human; details: for CRABP-II production: 48 hours; for % as Control: control as 100%

% Inhibition Retinoic Acid (10 μM) [1]: 84%
% Inhibition Retinoic Acid (100 μM) [1]: 84%
Compound: CC(=O)N1CCN(c2ccc(OCC3COC(Cn4ccnc4)(c4ccc(Cl)cc4Cl)O3)cc2)CC1 (stereo not shown) [Ketoconazole]

FOLD INCREASE IN RATE OF RETINOL LOSS [2]: 2.6 fold
Compound: CCCCCCCCCCCC(=O)N(C)CC(=O)O [Lauroyl Sarcosine]
% Inhibition ARAT (100 μm) [3]: 20%

pIC50 [4]: 6.33
Compound: CCCCCCCCCCCC1=NCCN1CCO [Lauryl Hydroxyethylimidazoline]

Compound: CCN(CC)CC(=O)Nc1c(C)cccc1C [Lidocaine, reference compound]
% Inhibition ARAT (100 μm) [3]: 12%

Compound: CCCCC/C=C\C/C=C\CCCCCCCC(=O)NCCCN(C)C [Linoleamidopropyl Dimethylamine]
% Inhibition ARAT (100 μm) [3]: 69% +/− 18

Compound: CCCCC/C=C\C/C=C\CCCCCCCC(=O)NCCO [Linoleoyl Monoethanolamide]
pIC50 [4]: 4.79

Compound: CC(C)(O)CCCC1=CCC(C=O)CC1 (stereo not shown) [Lyral]
% Inhibition ARAT (100 μm) [3]: 76%

Compound: CCCCC/C=C/C/C=C/CCCCCCCC(=O)NC(C)c1ccccc1 (stereo not shown) [Melinamide, reference compound]
% Inhibition ARAT (100 μm) [3]: 64% +/− 15

% Inhibition Retinoic Acid (10 μM) [1]: 74%
% Inhibition Retinoic Acid (100 μM) [1]: 86%
Compound: Clc1ccc(COC(Cn2ccnc2)c2ccc(Cl)cc2Cl)c(Cl)c1 (stereo not shown) [Miconazole]

Compound: CCCCCCCCCCCCCC(=O)N(C)CC(=O)O [Myristoyl Sarcosine]
% Inhibition ARAT (100 μm) [3]: 41% +/− 14

Compound: O=C1C[C@@H](c2ccc(O)cc2)Oc2cc(O)cc(O)c21 [Naringenin]
% Inhibition ARAT (100 μm) [3]: 33%

pIC50 [4]: 4.55
Compound: CCCCCCCC/C=C\CCCCCCCC[N+](C)(C)CC(=O)[O-] [Oleyl Betaine]
% Inhibition ARAT (100 μm) [3]: 47%

pIC50 [4]: 4.52
Compound: CCCCCCCC/C=C\CCCCCCCC1=NCCN1CCO [Oleyl Hydroxyethylimidazoline]

% Inhibition LRAT (100 μm) [5]: 37%
Compound: CC(=O)/C=C/C=C(\C)CCC=C(C)C [Pseudoionone]

% Inhibition Retinoic Acid (10 μM) [1]: 40%
% Inhibition Retinoic Acid (100 μM) [1]: 74%
Compound: O=c1c(O)c(-c2ccc(O)c(O)c2)oc2cc(O)cc(O)c12 [Quercetin]

Compound: CC1=C(/C=C/C(C)=C/C=C/C(C)=C/C(=O)O)C(C)(C)CCC1 [Retinoic acid, reference compound]
CRABP-II production ([6]; 1 nM retinoid alone): 0.97+/−0.47
% as Control ([6]; 1 nM retinoid alone): 335+/−162%
CRABP-II production ([6]; 10 nM retinoid alone): 1.24+/−0.29
% as Control ([6]; 10 nM retinoid alone): 428+/−101%

Compound: CC(=O)OC/C=C(C)/C=C/C=C(C)/C=C/C1=C(C)CCCC1(C)C [Retinyl Acetate]
CRABP-II production ([6]; 100 nM retinoid alone): 0.60+/−0.32
% as Control ([6]; 100 nM retinoid alone): 209+/−118%

Compound: CCCCC/C=C\C/C=C\CCCCCCCC(=O)OC/C=C(C)/C=C/C=C(C)/C=C/C1=C(C)CCCC1(C)C [Retinyl Linoleate]
CRABP-II production ([6]; 100 nM retinoid alone): 0.52+/−0.3
% as Control ([6]; 100 nM retinoid alone): 181+/−110%

Compound: CCCCCCCCCCCCCCCC(=O)OC/C=C(C)/C=C/C=C(C)/C=C/C1=C(C)CCCC1(C)C [Retinyl Palmitate]
CRABP-II production ([6]; 100 nM retinoid alone): 1.26+/−0.51
% as Control ([6]; 100 nM retinoid alone): 434+/−177%

% Inhibition LRAT (100 μm) [5]: 12%
Compound: CC(=O)C1(C)C2CC3C(C2)C31C (stereo not shown) [Santalone]
% Inhibition ARAT (100 μm) [3]: 23%

% Inhibition LRAT (100 μm) [5]: 33%
Compound: CCCC(O)CCC1C(C)CCCC1(C)C (stereo not shown) [Timberol]

Compound: CC(=O)c1cc2c(cc1C)C(C)(C)C(C)CC2(C)C (stereo not shown) [Tonalid]
% Inhibition ARAT (100 μm) [3]: 50%

Compound: CC(=O)c1cc2c(cc1C)C(C)(C)[C@H](C)[C@H]2C(C)C [Traseolide]
% Inhibition ARAT (100 μm) [3]: 41%

FOLD INCREASE IN RATE OF RETINOL LOSS [2]: 1.9 fold
Compound: COCAMIDE DEA

pIC50 [4]: 4.49
Compound: Castor Oil MEA

% Inhibition LRAT (100 μm) [5]: 68%
Compound: Coco Hydroxyethylimidazoline

Compound: Coco Trimethylammonium Cl-
% Inhibition ARAT (100 μm) [3]: 27%

% Inhibition LRAT (100 μm) [5]: 34%
Compound: Cocoyl Monoethanolamide
% Inhibition ARAT (100 μm) [3]: 13%

FOLD INCREASE IN RATE OF RETINOL LOSS [2]: 3.7 fold
Compound: DAMASCONE

% Inhibition LRAT (100 μm) [5]: 58% +/− 2
Compound: Glycerol-PCA-Oleate
% Inhibition ARAT (100 μm) [3]: 41% +/− 6

Compound: Hydroxyquinoline (Carbostyril)
pIC50 [4]: 3.44

% Inhibition LRAT (100 μm) [5]: 45%
Compound: Isobutyl Ionone
% Inhibition ARAT (100 μm) [3]: 8%

% Inhibition LRAT (100 μm) [5]: 43%
Compound: Santanol
% Inhibition ARAT (100 μm) [3]: 15%

— patent US20020143059A1, “Skin care product containing retinoids, retinoid booster and phytoestrogens in a dual compartment package” (priority 2000, published 2002)
